Measurements taken from ChEMBL document CHEMBL6182925 (J Med Chem, 2025).
Converted amounts (≈) assume the structure as drawn.

Assays:
BaF3 = assay: cells; conditions: Mus musculus, BaF3, 72 h
cells = conditions: Mus musculus, BaF3/TRP-Met, 72 h
[1] = Kinetic solubility of compound at pH 4.5; format: physicochemical; conditions: buffer, read-out: Kinetic_solubility
[2] = Kinetic solubility of compound at pH 2; format: physicochemical; conditions: buffer, read-out: Kinetic_solubility
[3] = molecular target: Vascular endothelial growth factor receptor 2 (Homo sapiens, UniProt P35968); assay: Inhibition of KDR (unknown origin) by fluorescence-based microfluidic mobility shift assay
Chain of Vascular endothelial growth factor receptor 2 (P35968 whole entry): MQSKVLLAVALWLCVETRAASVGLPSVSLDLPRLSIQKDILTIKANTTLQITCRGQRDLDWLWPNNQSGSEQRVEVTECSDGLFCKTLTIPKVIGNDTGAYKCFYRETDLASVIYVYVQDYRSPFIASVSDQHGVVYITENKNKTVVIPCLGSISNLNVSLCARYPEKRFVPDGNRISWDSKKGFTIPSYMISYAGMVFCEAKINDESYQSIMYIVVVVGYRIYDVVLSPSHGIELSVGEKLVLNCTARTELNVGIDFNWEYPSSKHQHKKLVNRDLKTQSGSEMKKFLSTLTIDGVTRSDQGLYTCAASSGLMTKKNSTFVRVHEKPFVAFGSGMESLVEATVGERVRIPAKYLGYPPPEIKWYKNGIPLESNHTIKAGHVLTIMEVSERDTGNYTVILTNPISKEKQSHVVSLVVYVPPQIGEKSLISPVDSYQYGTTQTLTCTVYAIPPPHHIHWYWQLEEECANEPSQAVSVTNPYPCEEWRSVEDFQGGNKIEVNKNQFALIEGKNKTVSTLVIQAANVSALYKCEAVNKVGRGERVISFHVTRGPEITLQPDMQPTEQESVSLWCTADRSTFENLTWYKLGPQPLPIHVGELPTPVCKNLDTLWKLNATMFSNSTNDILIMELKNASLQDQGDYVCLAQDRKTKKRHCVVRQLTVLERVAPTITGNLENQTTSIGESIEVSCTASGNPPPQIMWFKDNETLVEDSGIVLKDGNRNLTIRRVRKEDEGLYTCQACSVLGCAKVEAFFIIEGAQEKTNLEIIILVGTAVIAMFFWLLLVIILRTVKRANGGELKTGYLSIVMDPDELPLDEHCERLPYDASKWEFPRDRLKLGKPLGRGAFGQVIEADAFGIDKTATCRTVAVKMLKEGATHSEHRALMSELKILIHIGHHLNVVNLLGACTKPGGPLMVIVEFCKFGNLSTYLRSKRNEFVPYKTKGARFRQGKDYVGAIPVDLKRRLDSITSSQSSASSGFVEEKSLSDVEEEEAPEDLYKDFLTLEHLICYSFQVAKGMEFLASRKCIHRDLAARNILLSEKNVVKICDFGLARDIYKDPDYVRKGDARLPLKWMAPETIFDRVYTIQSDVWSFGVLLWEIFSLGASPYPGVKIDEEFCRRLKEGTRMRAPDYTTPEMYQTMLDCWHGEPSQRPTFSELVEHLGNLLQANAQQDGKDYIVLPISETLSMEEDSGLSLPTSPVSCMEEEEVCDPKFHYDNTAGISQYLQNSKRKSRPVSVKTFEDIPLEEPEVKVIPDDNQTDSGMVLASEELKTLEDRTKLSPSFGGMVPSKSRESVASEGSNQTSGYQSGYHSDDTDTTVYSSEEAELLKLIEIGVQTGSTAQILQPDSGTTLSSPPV

[4] = molecular target: Hepatocyte growth factor receptor (Homo sapiens, UniProt P08581, D1228N); assay: Inhibition of N-terminal GST-tagged recombinant human c-MET D1228N mutant (956 to end residues) extracted from baculovirus infected Sf9 cells using 5-FAM-KKKKEEIYFFF-CONH2 as substrate preincubated for 30 mins followed by ATP addition measured after 60 mins by fluorescence-based microfluidic mobility shift assay
[5] = molecular target: Hepatocyte growth factor receptor (Homo sapiens, UniProt P08581); assay: Inhibition of N-terminal GST-tagged wild-type human c-MET (956 to 1390 residues) extracted from baculovirus infected Sf21 cells using 5-FAM-KKKKEEIYFFF-CONH2 as substrate preincubated for 30 mins followed by ATP addition measured after 60 mins by fluorescence-based microfluidic mobility shift assay
Cytochrome P450 3A4 = Cytochrome P450 3A4 (Homo sapiens, UniProt P08684); assay: Inhibition of CYP3A4 (unknown origin); format: ADME
[6] = molecular target: 5-hydroxytryptamine receptor 1B (Homo sapiens) (UniProt P28222); assay: Inhibition of 5-HT1B receptor (unknown origin) at 10 uM by CEREP analysis relative to control
Chain of 5-hydroxytryptamine receptor 1B (Homo sapiens) (P28222 whole entry): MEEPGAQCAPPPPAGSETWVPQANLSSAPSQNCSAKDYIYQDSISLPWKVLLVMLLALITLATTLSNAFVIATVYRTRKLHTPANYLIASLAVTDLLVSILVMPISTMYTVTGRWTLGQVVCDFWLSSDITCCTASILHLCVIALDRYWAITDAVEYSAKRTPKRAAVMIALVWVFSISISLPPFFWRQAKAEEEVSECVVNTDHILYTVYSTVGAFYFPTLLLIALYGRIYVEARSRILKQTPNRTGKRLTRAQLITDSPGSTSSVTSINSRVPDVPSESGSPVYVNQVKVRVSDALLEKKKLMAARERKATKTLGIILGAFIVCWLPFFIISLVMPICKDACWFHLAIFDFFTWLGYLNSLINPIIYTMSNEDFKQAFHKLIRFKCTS

[7] = molecular target: 5-hydroxytryptamine receptor 2B (Homo sapiens) (UniProt P41595); assay: Inhibition of 5-HT2B receptor (unknown origin) at 10 uM by CEREP analysis relative to control
Chain of 5-hydroxytryptamine receptor 2B (Homo sapiens) (P41595 whole entry): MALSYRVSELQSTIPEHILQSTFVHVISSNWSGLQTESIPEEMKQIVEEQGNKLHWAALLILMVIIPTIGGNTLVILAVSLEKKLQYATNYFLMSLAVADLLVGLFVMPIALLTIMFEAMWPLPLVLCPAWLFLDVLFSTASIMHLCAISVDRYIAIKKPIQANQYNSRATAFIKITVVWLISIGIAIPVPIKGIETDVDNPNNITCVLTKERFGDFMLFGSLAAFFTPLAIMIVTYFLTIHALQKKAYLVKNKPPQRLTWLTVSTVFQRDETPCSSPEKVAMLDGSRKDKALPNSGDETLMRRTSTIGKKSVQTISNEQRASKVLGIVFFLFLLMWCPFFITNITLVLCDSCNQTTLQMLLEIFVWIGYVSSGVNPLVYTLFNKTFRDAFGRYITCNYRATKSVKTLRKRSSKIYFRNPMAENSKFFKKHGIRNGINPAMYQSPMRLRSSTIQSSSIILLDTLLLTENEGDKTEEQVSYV

Homo sapiens = species on record: Homo sapiens; assay: Inhibition of sodium channel site 2 (unknown origin) at 10 uM by CEREP analysis relative to control
[8] = molecular target: 3',5'-cyclic-AMP phosphodiesterase 4D (Homo sapiens) (UniProt Q08499); assay: Inhibition of PDE4D2 (unknown origin) at 10 uM by CEREP analysis relative to control
Chain of 3',5'-cyclic-AMP phosphodiesterase 4D (Homo sapiens) (Q08499 whole entry): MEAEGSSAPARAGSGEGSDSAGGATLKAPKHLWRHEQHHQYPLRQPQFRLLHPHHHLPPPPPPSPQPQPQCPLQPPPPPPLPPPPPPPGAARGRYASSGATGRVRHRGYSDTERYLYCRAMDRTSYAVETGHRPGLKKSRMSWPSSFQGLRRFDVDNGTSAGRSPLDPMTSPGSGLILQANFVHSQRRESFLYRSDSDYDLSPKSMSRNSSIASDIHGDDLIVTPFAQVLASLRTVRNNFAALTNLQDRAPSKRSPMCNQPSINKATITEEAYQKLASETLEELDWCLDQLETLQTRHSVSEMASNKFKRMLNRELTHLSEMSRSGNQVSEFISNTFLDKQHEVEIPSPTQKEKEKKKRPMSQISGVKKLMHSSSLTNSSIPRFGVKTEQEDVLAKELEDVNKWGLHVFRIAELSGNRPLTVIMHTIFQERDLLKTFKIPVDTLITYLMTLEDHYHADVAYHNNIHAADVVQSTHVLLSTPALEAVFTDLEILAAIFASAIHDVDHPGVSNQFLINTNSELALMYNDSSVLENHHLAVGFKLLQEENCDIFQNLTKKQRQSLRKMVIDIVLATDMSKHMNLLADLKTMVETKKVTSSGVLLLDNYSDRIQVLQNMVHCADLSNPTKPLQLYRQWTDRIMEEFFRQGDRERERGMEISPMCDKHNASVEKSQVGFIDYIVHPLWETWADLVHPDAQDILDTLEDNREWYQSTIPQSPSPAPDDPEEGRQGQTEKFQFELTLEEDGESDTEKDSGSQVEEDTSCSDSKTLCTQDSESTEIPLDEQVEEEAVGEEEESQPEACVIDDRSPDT

L-type calcium channel = L-type calcium channel (Homo sapiens, UniProt O60840+Q01668+Q13698+Q13936); assay: Inhibition of Calcium channel L-type (unknown origin) at 10 uM by CEREP analysis relative to control; format: protein assay
hERG = hERG (Homo sapiens, UniProt Q12809); assay: Inhibition of hERG at 10 uM by CEREP analysis relative to control; format: toxicity
Chain of hERG (Q12809 whole entry): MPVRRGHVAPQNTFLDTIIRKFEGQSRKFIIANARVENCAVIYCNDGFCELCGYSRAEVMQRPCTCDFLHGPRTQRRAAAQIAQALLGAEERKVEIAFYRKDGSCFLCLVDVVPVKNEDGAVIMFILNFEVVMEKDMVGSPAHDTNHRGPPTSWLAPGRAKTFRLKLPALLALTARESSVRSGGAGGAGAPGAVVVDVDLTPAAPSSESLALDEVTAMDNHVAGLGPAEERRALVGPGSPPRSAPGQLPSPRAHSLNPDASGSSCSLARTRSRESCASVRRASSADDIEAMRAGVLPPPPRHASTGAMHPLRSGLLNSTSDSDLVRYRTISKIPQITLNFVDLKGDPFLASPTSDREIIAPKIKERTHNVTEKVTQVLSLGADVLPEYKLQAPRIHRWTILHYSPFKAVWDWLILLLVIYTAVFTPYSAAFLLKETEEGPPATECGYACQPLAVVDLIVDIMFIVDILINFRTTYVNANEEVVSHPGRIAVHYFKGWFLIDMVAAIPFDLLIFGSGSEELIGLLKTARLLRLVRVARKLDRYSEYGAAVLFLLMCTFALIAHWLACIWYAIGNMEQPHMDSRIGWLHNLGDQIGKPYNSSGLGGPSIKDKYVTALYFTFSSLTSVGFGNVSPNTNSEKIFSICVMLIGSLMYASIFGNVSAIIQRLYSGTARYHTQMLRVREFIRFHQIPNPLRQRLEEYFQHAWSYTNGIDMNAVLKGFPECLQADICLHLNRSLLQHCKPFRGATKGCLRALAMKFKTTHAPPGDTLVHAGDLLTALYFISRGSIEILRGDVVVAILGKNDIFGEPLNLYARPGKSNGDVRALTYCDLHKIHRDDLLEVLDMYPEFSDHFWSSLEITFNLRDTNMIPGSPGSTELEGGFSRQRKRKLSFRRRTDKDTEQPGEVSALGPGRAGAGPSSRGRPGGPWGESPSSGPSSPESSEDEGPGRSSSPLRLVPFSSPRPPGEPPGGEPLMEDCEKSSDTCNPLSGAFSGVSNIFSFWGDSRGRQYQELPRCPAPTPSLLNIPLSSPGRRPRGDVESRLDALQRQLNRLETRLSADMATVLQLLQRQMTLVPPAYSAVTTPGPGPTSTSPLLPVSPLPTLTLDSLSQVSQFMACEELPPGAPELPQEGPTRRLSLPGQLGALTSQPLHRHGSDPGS

[9] = molecular target: T1, Alpha-2A adrenergic receptor (Homo sapiens) (UniProt P08913); assay: Inhibition of alpha 2A adrenergic receptor (unknown origin) at 10 uM by CEREP analysis relative to control
T1 sequence (whole entry): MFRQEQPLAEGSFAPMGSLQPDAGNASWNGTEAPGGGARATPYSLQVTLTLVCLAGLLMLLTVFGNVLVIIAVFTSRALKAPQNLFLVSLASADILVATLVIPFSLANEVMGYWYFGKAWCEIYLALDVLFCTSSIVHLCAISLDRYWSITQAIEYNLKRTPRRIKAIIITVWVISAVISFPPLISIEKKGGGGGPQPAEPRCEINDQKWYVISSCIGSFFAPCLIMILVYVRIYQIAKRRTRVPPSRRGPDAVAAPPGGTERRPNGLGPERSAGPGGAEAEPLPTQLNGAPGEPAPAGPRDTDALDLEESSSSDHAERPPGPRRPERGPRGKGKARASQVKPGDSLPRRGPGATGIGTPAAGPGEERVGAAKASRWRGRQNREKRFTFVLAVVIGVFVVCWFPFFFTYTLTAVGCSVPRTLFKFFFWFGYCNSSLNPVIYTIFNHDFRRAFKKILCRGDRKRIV

[10] = Oral bioavailability in mouse; format: ADME, organism-based; conditions: in vivo
[11] = Clearance in mouse; format: ADME, organism-based; conditions: in vivo
[12] = molecular target: Sodium-dependent serotonin transporter (Homo sapiens) (UniProt P31645); assay: Inhibition of SERT (unknown origin) at 10 uM by CEREP analysis relative to control
Chain of Sodium-dependent serotonin transporter (Homo sapiens) (P31645 whole entry, looked up): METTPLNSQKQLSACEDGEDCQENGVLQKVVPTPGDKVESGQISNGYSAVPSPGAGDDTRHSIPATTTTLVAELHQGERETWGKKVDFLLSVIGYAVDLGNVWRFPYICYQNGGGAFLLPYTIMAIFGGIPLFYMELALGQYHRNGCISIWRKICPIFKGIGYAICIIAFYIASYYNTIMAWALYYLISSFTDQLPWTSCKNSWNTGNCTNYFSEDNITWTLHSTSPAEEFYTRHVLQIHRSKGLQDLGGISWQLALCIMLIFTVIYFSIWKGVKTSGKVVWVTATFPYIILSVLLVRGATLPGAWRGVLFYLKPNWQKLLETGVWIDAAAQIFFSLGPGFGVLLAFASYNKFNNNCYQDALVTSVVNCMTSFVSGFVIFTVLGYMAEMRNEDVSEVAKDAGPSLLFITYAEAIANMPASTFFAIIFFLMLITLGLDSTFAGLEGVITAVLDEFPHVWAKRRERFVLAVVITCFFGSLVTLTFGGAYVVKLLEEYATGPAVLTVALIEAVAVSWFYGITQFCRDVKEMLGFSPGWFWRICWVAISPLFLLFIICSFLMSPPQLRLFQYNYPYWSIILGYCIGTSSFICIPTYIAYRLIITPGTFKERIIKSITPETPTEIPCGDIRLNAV

[13] = molecular target: cGMP-inhibited 3',5'-cyclic phosphodiesterase 3A (Homo sapiens) (UniProt Q14432); assay: Inhibition of PDE3A (unknown origin) at 10 uM by CEREP analysis relative to control
[14] = molecular target: T2, Muscarinic acetylcholine receptor M2 (Homo sapiens) (UniProt P08172); assay: Inhibition of muscarinic M2 receptor (unknown origin) at 10 uM by CEREP analysis relative to control
T2 sequence (whole entry): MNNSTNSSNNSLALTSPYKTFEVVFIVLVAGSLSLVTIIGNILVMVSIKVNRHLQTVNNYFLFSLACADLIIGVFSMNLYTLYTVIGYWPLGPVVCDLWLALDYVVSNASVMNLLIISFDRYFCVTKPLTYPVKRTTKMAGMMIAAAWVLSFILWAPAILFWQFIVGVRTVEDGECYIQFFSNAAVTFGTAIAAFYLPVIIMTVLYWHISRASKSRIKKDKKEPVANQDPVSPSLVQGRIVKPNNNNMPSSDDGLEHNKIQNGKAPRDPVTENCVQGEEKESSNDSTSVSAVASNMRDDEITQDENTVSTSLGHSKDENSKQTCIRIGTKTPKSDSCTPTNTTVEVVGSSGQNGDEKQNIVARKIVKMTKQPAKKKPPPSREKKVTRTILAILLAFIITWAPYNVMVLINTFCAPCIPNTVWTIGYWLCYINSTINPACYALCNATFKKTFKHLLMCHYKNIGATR

[15] = Oral bioavailability in rat; format: ADME, organism-based; conditions: in vivo

COc1cc2nccc(Oc3c(F)cc(NC(=O)c4cnccc4OC)cc3F)c2cc1OC
EC50 (BaF3): 56 nM | EC50 (cells): 123 nM | solubility kinetic [1]: 5.4 µM (≈ 2.52 µg/mL) | solubility kinetic [2]: 205 µM (≈ 95.8 µg/mL)

COCCNCc1ccc(-c2cc3nccc(Oc4ccc(NC(=S)NC(=O)Cc5ccc(F)cc5)cc4F)c3s2)nc1 [GLESATINIB]
IC50 [3]: 0.5 nM | solubility kinetic [1]: 0.12 µM (≈ 0.0744 µg/mL) | solubility kinetic [2]: 4 µM (≈ 2.48 µg/mL)

COc1cc2nccc(Oc3ccc(NC(=O)c4ccccc4OC)cc3F)c2cc1OC
EC50 (BaF3): 795 nM | IC50 [4]: 2.2 nM | EC50 (cells): 1320 nM | IC50 [3]: 250 nM | solubility kinetic [1]: 1 µM (≈ 0.448 µg/mL) | solubility kinetic [2]: 6.1 µM (≈ 2.74 µg/mL) | IC50 [5]: 4.4 nM

COc1cc2nccc(Oc3ccc(NC(=O)c4cnccc4OC)cc3F)c2cc1OC
EC50 (BaF3): 174 nM | EC50 (cells): 382 nM | solubility kinetic [1]: 24 µM (≈ 10.8 µg/mL) | IC50 (Cytochrome P450 3A4): > 50000 nM | solubility kinetic [2]: 252 µM (≈ 113 µg/mL)

COc1cc2nccc(Oc3c(F)cc(NC(=O)c4cnccc4OC4CC4)cc3F)c2cc1OC
EC50 (BaF3): 26 nM | EC50 (cells): 43 nM | solubility kinetic [1]: 4.4 µM (≈ 2.17 µg/mL) | solubility kinetic [2]: 288 µM (≈ 142 µg/mL)

COc1cc2c(Oc3c(F)cc(NC(=O)c4cnccc4OC4CC4)cc3F)ccnc2cc1OCCO
inhibition [6]: 22% | inhibition [7]: 69% | EC50 (BaF3): 14 nM | EC50 (cells): 18 nM | inhibition (Homo sapiens): 57% | solubility kinetic [1]: 8.1 µM (≈ 4.24 µg/mL) | inhibition [8]: 96% | inhibition at 10 µM (L-type calcium channel): 50% | inhibition at 10 µM (hERG): 13% | inhibition [9]: -1% | bioavailability [10]: ~100% | solubility kinetic [2]: 312 µM (≈ 163 µg/mL) | clearance [11]: 5.4 mL/min/kg | inhibition [12]: 4% | inhibition [13]: 99% | inhibition [14]: 81%

COc1cc2c(Oc3c(F)cc(NC(=O)c4cnccc4OC)cc3F)ccnc2cc1OCCO
inhibition [6]: -8% | inhibition [7]: 18% | EC50 (BaF3): 31 nM | EC50 (cells): 36 nM | inhibition (Homo sapiens): 30% | solubility kinetic [1]: 11 µM (≈ 5.47 µg/mL) | inhibition [8]: 90% | inhibition at 10 µM (L-type calcium channel): -3% | inhibition at 10 µM (hERG): 3% | inhibition [9]: 8% | bioavailability [10]: ~100% | solubility kinetic [2]: 315 µM (≈ 157 µg/mL) | inhibition [12]: 7% | bioavailability [15]: ~100% | inhibition [13]: 98% | inhibition [14]: 12%
